# Measurements taken from PMC10182956 (Archives of Toxicology, 2023).
# “Also recorded” adds a separate entry of the source. Like-named read-outs stand apart in the source and are kept apart here.
# Legend:
# HepaRG cells [1] = test: Cell viability assessment (WST-1 assay); format: cell-based, human; details: 95% CI in brackets
# Excerpt: Undifferentiated HepaRG cells were purchased from Biopredic international (Saint Grégoire, France). HepaRG cells have unlimited growth capacity and phenotypic stability, stable enzymatic activities over 4 weeks of cultivation, and similar metabolic function to primary human hepatocytes, and also avoid limitations of primary cells such as donor variability and phenotypic instability (Aninat et al. [2006]; Guillouzo et al. [2007]; Lambert et al. [2009]; Lübberstedt et al. [2011]; Andersson et al. [2012]). The line contains two cell types, hepatocyte-like and cholangiocyte-like cells (Parent et al. [2004]), which allows for elucidation of cell-specific toxicity (Jossé et al. [2008]). Cells were seeded at a density of approximately 27′000 cells/cm^2 into a 150 × 25 mm petri dish and were cultured for 2 weeks in William’s E medium (cat. nr.: 32,551,020, ThermoFisher Scientific, Massachusetts, USA) supplemented with 2 mM glutamine, 10% (v/v) fetal bovine serum (FBS) good forte (cat. nr.: P40-47,500, PAN-Biotech, Aidenbach, Germany), 100 U/ml penicillin and 100 µg/ml streptomycin (cat. nr.: 15,140,122, ThermoFisher Scientific, Massachusetts, USA), 5 µg/ml Gibco recombinant AOF insulin (cat. nr.: A11382II, ThermoFisher Scientific, Massachusetts, USA) and 50 µM hydrocortisone hemisuccinate (cat. nr.: H4881, Sigma-Aldrich, St. Louis, USA) at 37 °C and 5% CO2. Differentiation was induced by culturing the cells for another 2 weeks in the above mentioned medium supplemented with 1.7% DMSO. After 4 weeks in culture, differentiated HepaRG cells were seeded at a high density of approximately 227′000 cells/cm^2 (72,000 cells/well with 100 µl per well) into black 96-well plates with a clear bottom (cat.nr.: 3603, Corning, New York, USA) and maintained for 10 days. After 10 days, cells were first adapted to treatment medium (culture medium containing 0.5% DMSO and 2% FBS) for 48 h and then used for cell viability and high-content imaging analysis.
# Cell viability was analyzed using the WST-1 assay which is based on the measurement of mitochondrial dehydrogenase activity (cat. nr: ab155902, Abcam, Cambridge, UK). HepaRG cells were exposed to chemicals at defined concentrations for 24 h. Triton X-100 (0.01%) was a positive control. One hour before the end of incubation period, 10 µl of WST-1 reagent was added to each well, quickly mixed by shaking the plate, and returned to the cell culture incubator (37 °C, 5% CO2). After 1 h, absorbance was measured (450 nm, reference wavelength 620 nm) using a plate reader (Infinite M200 Pro, Tecan group, Männerdorf, Switzerland). Absorbance was then subtracted from the reference wavelength, corrected for background by subtracting values measured without cells, and then normalized to the solvent control, which was set to 100%. Dose–response data were fitted using drc package (Version 3.0.1) (Ritz et al. [2015]) in R 3.6.1. Data were from at least 3 independent experiments with 6 technical replicates per condition.
# [2] = for OED (mg/kg BW/day): IVIVE derived median with 95% CI, from BMC of positive imaging endpoint, oral, daily dosing, Table 1; for OED compared with reported NOAEL, LOAEL concentrations or the exposure estimate (in words): human; for OED: IVIVE derived median over all positive imaging endpoints, human simulation, Table 2
# [3] = atrazine: increase relative liver weight, ref Aguilar et al. [2009], ATSDR [2003], Food and Authority [2009a], Food and Authority [2009b], cited from earlier work; for NOAEL from literature (mg/kg BW/day): first value of cell NOAEL/LOAEL; for LOAEL from literature (mg/kg BW/day): second value of cell NOAEL/LOAEL
# HepaRG cells [4] = test: High-content imaging assay: lipid accumulation (Bodipy lipid droplets); format: cell-based; details: for Lipid accumulation response (in words): population level, threshold ± 2 standard deviations of the response at the two lowest concentrations; for EC (BMC, 1 SD from control): read-out: LA: Benchmark concentration (µM) per imaging endpoint calculated with BMDS software
# HepaRG cells [5] = details: HepaRG 24 h; for Mitochondrial membrane potential response (in words): population level, threshold ± 2 standard deviations of the response at the two lowest concentrations
# HepaRG cells [6] = test: cells; details: Homo sapiens, 24 h, read-out: MMP: Benchmark concentration (µM) per imaging endpoint calculated with BMDS software
# [7] = cited from earlier work; for In vivo blood plasma conc.: ref Aguilar et al. [2009], D’Apolito et al. [2012], Li et al. [2009]; for In vivo Css: human, published, ref Birkett and Miners 1991, Graham et al. 2011, Freedman and Somberg 1991, Vasudev et al. 2001
# HepaRG cells [8] = details: for OS: Benchmark concentration (µM) per imaging endpoint calculated with BMDS software: oxidative stress, Supplementary table 3; for Oxidative stress response (in words): population level, threshold ± 2 standard deviations of the response at the two lowest concentrations
# HepaRG cells [9] = system: HepaRG cells
# HepaRG cells [10] = test: cells; details: Homo sapiens, 24 h, read-out: NM: Benchmark concentration (µM) per imaging endpoint calculated with BMDS software
# [11] = Homo sapiens, WST-1, 24 h exposure, food-related chemicals and pesticides, read-out: EC50 (95% CI) in µM from cell viability assay
# [12] = Homo sapiens, lipid accumulation, HepaRG 24 h, BMR one standard deviation from control mean, Table 1
# [13] = Homo sapiens, 24 h exposure, reference chemicals, read-out: EC50 µM (95% CI) from cell viability (WST-1)
compound,measurement,setting,value
CC1=CC[C@@H](C(C)(C)O)CC1 [Alpha-terpineol],EC50,HepaRG cells [1]; [11],2560 µM
CCNc1nc(Cl)nc(NC(C)C)n1 [Atrazine],OED (mg/kg BW/day),[2],0.5 (95% CI 0.2–1.7) mg/kg BW/day
same,NOAEL from literature (mg/kg BW/day),[3],5 mg/kg BW/day
same,Lipid accumulation response (in words),HepaRG cells [4]; HepaRG 24 h,induced significant lipid accumulation
same,"EC (BMC, 1 SD from control)",HepaRG cells [4]; [12],19 µM
CC(C)(c1ccc(O)cc1)c1ccc(O)cc1 [Bisphenol A],Lipid accumulation response (in words),HepaRG cells [4]; HepaRG 24 h,induced significant lipid accumulation
same,EC50,HepaRG cells [1]; [11],237 µM
CNC(=O)Oc1cccc2c1OC(C)(C)C2 [Carbofuran],Mitochondrial membrane potential response (in words),HepaRG cells [5],dose-dependent increase in MMP exceeding the threshold
same,"EC (BMC, 1 SD from control)",HepaRG cells [6],4980 µM
same,NOAEL from literature (mg/kg BW/day),[3],0.03–0.1 mg/kg BW/day
same,LOAEL from literature (mg/kg BW/day),[3],0.1–0.3 mg/kg BW/day
same,Lipid accumulation response (in words),HepaRG cells [4]; HepaRG 24 h,did not stimulate lipid accumulation
CCCCN(CCCC)SN(C)C(=O)Oc1cccc2c1OC(C)(C)C2 [Carbosulfan],OED (mg/kg BW/day),[2],10.4 (95% CI 7–19.3) mg/kg BW/day
same,"OED compared with reported NOAEL, LOAEL concentrations or the exposure estimate (in words)",[2],overlapped
same,NOAEL from literature (mg/kg BW/day),[3],0.5–1.2 mg/kg BW/day
same,LOAEL from literature (mg/kg BW/day),[3],5–62 mg/kg BW/day
same,"EC (BMC, 1 SD from control)",HepaRG cells [4]; [12],77 µM
C[C@H](CCC(=O)O)[C@H]1CC[C@H]2[C@@H]3CC[C@@H]4C[C@H](O)CC[C@]4(C)[C@H]3C[C@H](O)[C@]12C [Deoxycholic acid],EC50,HepaRG cells [1]; [11],246 µM
"N#CC(C#N)=NNc1ccc(OC(F)(F)F)cc1 [FCCP, carbonylcyanide-p-trifluoromethoxyphenylhydrazone]",Concentration at which decrease of mitochondrial membrane potential exceeded the threshold,HepaRG cells [5],2.5 µM
N#Cc1nn(-c2c(Cl)cc(C(F)(F)F)cc2Cl)c(N)c1[S+]([O-])C(F)(F)F (stereo not shown) [Fipronil],EC50,HepaRG cells [1]; [11],21 µM
O=C(CO)[C@@H](O)[C@H](O)[C@H](O)CO [Fructose],Mitochondrial membrane potential response (in words),HepaRG cells [5],dose-dependent increase in MMP exceeding the threshold
same,Lipid accumulation response (in words),HepaRG cells [4]; HepaRG 24 h,did not stimulate lipid accumulation
same,EC50,HepaRG cells [1]; [11],6.6 µM
Cc1cccc(C)c1N(Cn1cccn1)C(=O)CCl [Metazachlor],Lipid accumulation response (in words),HepaRG cells [4]; HepaRG 24 h,induced significant lipid accumulation
same,EC50,HepaRG cells [1]; [11],183 µM
O=C(O)c1cc(=O)[nH]c(=O)[nH]1 [Orotic acid],OED (mg/kg BW/day),[2],61.2 (95% CI 21.1–134) mg/kg BW/day
same,"OED compared with reported NOAEL, LOAEL concentrations or the exposure estimate (in words)",[2],overlapped
same,Mitochondrial membrane potential response (in words),HepaRG cells [5],dose-dependent increase in MMP exceeding the threshold
same,"EC (BMC, 1 SD from control)",HepaRG cells [6],423 µM
same,In vivo blood plasma conc.,[7],0.15 to 0.3 µM
same,NOAEL from literature (mg/kg BW/day),[3],50 mg/kg BW/day
same,LOAEL from literature (mg/kg BW/day),[3],100 mg/kg BW/day
same,Lipid accumulation response (in words),HepaRG cells [4]; HepaRG 24 h,did not stimulate lipid accumulation
O=[As][O-].[Na+] [Sodium arsenite],Concentration at which increase of oxidative stress exceeded the threshold,HepaRG cells [8],25 µM
same,Concentration at which increase of number of apoptotic cells (nuclear morphology) exceeded the threshold,HepaRG cells [9],25 µM
O=S(=O)(c1ccccc1)N(CC(F)(F)F)c1ccc(C(O)(C(F)(F)F)C(F)(F)F)cc1 [T0901317],Concentration at which increase of oxidative stress exceeded the threshold,HepaRG cells [8]; HepaRG 24 h,40 µM
same,Mitochondrial membrane potential response (in words),HepaRG cells [5],decrease in MMP below the threshold
same,Concentration at which increase of number of apoptotic cells (nuclear morphology) exceeded the threshold,HepaRG cells [9]; HepaRG 24 h,40 µM
same,Lipid accumulation response (in words),HepaRG cells [4]; HepaRG 24 h,dose-dependently increased and exceeded the threshold
same,EC50,"HepaRG cells [1]; 24 h exposure, reference chemicals, read-out: EC50 µM (95% CI) from cell viability (WST-1)",42.9 µM
O=C([O-])C1=NN(c2ccc(S(=O)(=O)[O-])cc2)C(=O)C1N=Nc1ccc(S(=O)(=O)[O-])cc1.[Na+].[Na+].[Na+] (stereo not shown) [Tartrazine],Lipid accumulation response (in words),HepaRG cells [4]; HepaRG 24 h,induced significant lipid accumulation
O=c1[nH]c(=O)c2[nH]c(=O)[nH]c2[nH]1 [Uric acid],OED (mg/kg BW/day),[2],87.3 (95% CI 67.3–150.6) mg/kg BW/day
same,In vivo blood plasma conc.,[7],217 to 402 µM
same,Lipid accumulation response (in words),HepaRG cells [4]; HepaRG 24 h,induced significant lipid accumulation
same,"EC (BMC, 1 SD from control)",HepaRG cells [4]; [12],591 µM
C=CC1(C)OC(=O)N(c2cc(Cl)cc(Cl)c2)C1=O (stereo not shown) [Vinclozolin],Lipid accumulation response (in words),HepaRG cells [4]; HepaRG 24 h,induced significant lipid accumulation
CCCCc1oc2ccccc2c1C(=O)c1cc(I)c(OCCN(CC)CC)c(I)c1 [amiodarone],OED,[2],15.8 mg/kg/day
same,Concentration at which increase of oxidative stress exceeded the threshold,HepaRG cells [8]; HepaRG 24 h,25 µM
same,OS: Benchmark concentration (µM) per imaging endpoint calculated with BMDS software,HepaRG cells [8]; HepaRG 24 h,5.35 µM
same,Concentration at which decrease of mitochondrial membrane potential exceeded the threshold,HepaRG cells [5],25 µM
same,EC (BMC),HepaRG cells [10],14.9 µM
same,"EC (BMC, 1 SD from control)",HepaRG cells [6],13.8 µM
same,In vivo Css,[7],5.4 to 6.0 µM
same,"EC (BMC, 1 SD from control)",HepaRG cells [4]; 24 h,8.5 µM
same,Lipid accumulation response (in words),HepaRG cells [4]; HepaRG 24 h,increased in a dose-dependent manner
Cn1c(=O)c2c(ncn2C)n(C)c1=O [caffeine],Lipid accumulation response (in words),HepaRG cells [4]; HepaRG 24 h,decrease of lipid accumulation that exceeded the threshold
same,Concentration at which decrease of lipid accumulation exceeded the threshold,"HepaRG cells [4]; HepaRG 24 h, only at the highest concentration",5000 µM
same,EC50,HepaRG cells [1]; [13],6530 µM
CCOC(=O)[C@@]1(CCCCCCOc2ccc(Cl)cc2)CO1 [etomoxir],Oxidative stress response (in words),HepaRG cells [8]; HepaRG 24 h,"neither induced lipid accumulation, had any consistent impact on oxidative stress"
same,Concentration at which increase of MMP (hyperpolarization) was observed / exceeded the threshold,HepaRG cells [5],36 µM
same,Mitochondrial membrane potential response (in words),HepaRG cells [5],increased MMP
same,Lipid accumulation response (in words),HepaRG cells [4]; HepaRG 24 h,neither induced lipid accumulation; also recorded: did not give rise to lipid accumulation
same,EC50,HepaRG cells [1]; [13],144 µM
C=C(C)[C@H]1Cc2c(ccc3c2O[C@@H]2COc4cc(OC)c(OC)cc4[C@@H]2C3=O)O1 [rotenone],OED,[2],0.3 mg/kg/day
same,Concentration at which decrease of mitochondrial membrane potential exceeded the threshold,HepaRG cells [5],2.5 µM
same,Lipid accumulation response (in words),HepaRG cells [4]; HepaRG 24 h,increased in a dose-dependent manner
same,EC50,HepaRG cells [1]; [13],18.9 µM
CCCC(CCC)C(=O)O [valproic acid],OED,[2],92.7 mg/kg/day
same,Oxidative stress response (in words),HepaRG cells [8]; HepaRG 24 h,no changes were observed
same,OS: Benchmark concentration (µM) per imaging endpoint calculated with BMDS software,HepaRG cells [8]; HepaRG 24 h,1379.8 µM
same,Mitochondrial membrane potential response (in words),HepaRG cells [5],did not affect MMP
same,EC (BMC),HepaRG cells [10],612 µM
same,"EC (BMC, 1 SD from control)",HepaRG cells [6],1310 µM
same,In vivo Css,[7],346.7 to 693.4 µM
same,Lipid accumulation response (in words),HepaRG cells [4]; HepaRG 24 h,accumulated in a dose-dependent manner above the threshold
same,"EC (BMC, 1 SD from control)","HepaRG cells [4]; Homo sapiens, lipid accumulation, HepaRG 24 h, Supplementary table 3",570 µM
